Measured values as given in US7585859B2, “PDE4B inhibitors and uses therefor” (Plexxikon, Inc., priority 2004, dated 2009).

Assays:
PDE4D = target: T1, PDE4D (Homo sapiens, UniProt Q08499); test: PDE4 IC50 determination by Scintillation Proximity Assay, PDE4D; type: biochemical; settings: Table 1B, Formula I compounds; read-out: IC50 PDE4D
T1 construct: PDE4D: The catalytic domain of human PDE4B from S3 16-V692; His6 (N); thrombin cleavage site (N); made in house; host or cells: E. coli
Protocol: (§1) IC50s were determined by Scintillation Proximity Assay (SPA). The principle of the assay is based on the fact that cAMP, the PDE4 substrate, binds weakly to Yittrium Silicate SPA beads, whereas AMP, the product of PDE4 hydrolysis binds strongly. Thus, the extent of PDE4 hydrolysis of a sample of [^3H]cAMP can be measured because only the
(§2) [^3H]AMP produced by PDE4 hydrolysis will bind to the SPA beads and produce a scintillation signal.
(§3) PDE4 enzymes used for IC50 assays were:
(§4) Enzyme was stored in 50% glycerol at −20°.
(§5) In addition to the compound dilutions, each assay plate contained control wells with 1 μl of DMSO (to define 0% enzyme inhibition) or 1 μl of 200 μM roflumilast (to define 100% enzyme inhibition). […] Next, 10 μl of PDE4 enzyme in assay buffer was added and the plates were shaken for 30 s. at 1000 rpm to start the cAMP hydrolysis reaction. The concentrations of enzyme used were: PDE4B, 80 ng/ml; PDE4D, 4 ng/ml; PDE4B2, 2.5 μl of 50% glycerol stock/ml; PDE4D5 0.083 μl of 50% glycerol stock/ml. Assay plates were covered and incubated for 30 min. at 30°. […] The assay plates were covered with clear plastic film, centrifuged for 1 min. at 1000 RPM to settle the SPA beads, and counted using a Wallac TriLux scintillation counter. IC50's were calculated from the raw assay data by non-linear regression curve fitting using the Assay Explorer software package from MDL.

[1] = target: T2, PDE4B: The catalytic domain of human PDE4B from S152-S528 (Homo sapiens, UniProt Q07343); test: PDE4 IC50 determination by Scintillation Proximity Assay, PDE4B; type: biochemical; settings: Table 1B, Formula I compounds; read-out: IC50 PDE4B
T2 construct: His6 (N); thrombin cleavage site (N); made in house; host or cells: E. coli
Protocol: as §1, §2, §3, §4, §5

T2 sequence (Q07343 with tags, fused parts or gaps): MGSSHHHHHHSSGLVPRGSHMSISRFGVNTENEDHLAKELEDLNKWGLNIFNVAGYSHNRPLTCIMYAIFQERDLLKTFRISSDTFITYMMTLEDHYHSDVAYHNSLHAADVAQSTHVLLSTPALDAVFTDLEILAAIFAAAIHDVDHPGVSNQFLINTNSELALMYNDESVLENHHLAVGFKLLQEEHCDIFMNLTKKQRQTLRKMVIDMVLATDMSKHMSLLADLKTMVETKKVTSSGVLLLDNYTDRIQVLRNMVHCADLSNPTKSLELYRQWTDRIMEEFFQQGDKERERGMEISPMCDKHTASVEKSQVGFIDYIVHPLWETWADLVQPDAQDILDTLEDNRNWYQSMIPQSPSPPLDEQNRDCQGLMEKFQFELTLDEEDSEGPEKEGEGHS
T1 sequence (Q08499 380-756): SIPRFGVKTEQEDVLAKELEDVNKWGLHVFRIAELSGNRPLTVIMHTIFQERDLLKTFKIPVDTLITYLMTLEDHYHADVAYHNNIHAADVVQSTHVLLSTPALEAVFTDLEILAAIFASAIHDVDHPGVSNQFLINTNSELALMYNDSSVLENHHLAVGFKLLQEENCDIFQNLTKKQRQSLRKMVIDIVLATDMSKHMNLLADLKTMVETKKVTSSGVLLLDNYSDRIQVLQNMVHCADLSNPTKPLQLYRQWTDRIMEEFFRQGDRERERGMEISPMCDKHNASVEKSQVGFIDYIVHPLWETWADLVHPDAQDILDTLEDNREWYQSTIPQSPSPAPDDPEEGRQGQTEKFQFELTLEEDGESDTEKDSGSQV

| IC50 (PDE4D) [µM] | IC50 [1] [µM] | SMILES |
| --- | --- | --- |
| < 10 | < 10 | COc1cc(C#N)c(Nc2sc(C(=O)c3ccc(Cl)cc3)c(N)c2C#N)cc1OC [Compound 1-19, 4-Amino-5-(4-chloro-benzoyl)-2-(2-cyano-4,5-dimethoxy-phenylamino)-thiophene-3-carbonitrile] |
| > 10 | > 10 | Cc1cc(Cl)ccc1Nc1sc(C(=O)c2cc3cc(Cl)ccc3o2)c(N)c1C#N [Compound 1-23, 4-Amino-5-(5-chloro-benzofuran-2-carbonyl)-2-(4-chloro-2-methyl-phenylamino)-thiophene-3-carbonitrile] |
| > 10 | > 10 | CCOC(=O)c1c(Nc2c(C)cccc2C)sc(C(=O)c2ccc(Br)cc2)c1N [Compound 1-24, 4-Amino-5-(4-bromo-benzoyl)-2-(2,6-dimethyl-phenylamino)-thiophene-3-carboxylic acid ethyl ester] |
| < 10 | < 10 | N#Cc1c(Nc2ccccc2)sc(C(=O)Nc2nccs2)c1N [Compound 1-25, 3-Amino-4-cyano-5-phenylamino-thiophene-2-carboxylic acid thiazol-2-yl amide] |
| < 10 | < 10 | Cc1cc(NC(=O)c2sc(Nc3ccccc3)c(C#N)c2N)no1 [Compound 1-26, 3-Amino-4-cyano-5-phenylamino-thiophene-2-carboxylic acid (5-methyl-isoxazol-3-yl)-amide] |
| > 10 | > 10 | Cc1ccc(C(=O)c2sc(NCCN3CCCCC3)c(C#N)c2N)c(C)c1 [Compound 1-38, 4-Amino-5-(2,4-dimethyl-benzoyl)-2-(2-piperidin-1-yl-ethylamino)-thiophene-3-carbonitrile] |
| > 10 | > 10 | COc1ccc(OC)c(C(=O)c2sc(NCCN3CCCCC3)c(C#N)c2N)c1 [Compound 1-39, 4-Amino-5-(2,5-dimethoxy-benzoyl)-2-(2-piperidin-1-yl-ethylamino)-thiophene-3-carbonitrile] |
| > 10 | > 10 | COc1ccc(C(=O)c2sc(NCCN3CCCCC3)c(C#N)c2N)c(OC)c1 [Compound 1-41, 4-Amino-5-(2,4-dimethoxy-benzoyl)-2-(2-piperidin-1-yl-ethylamino)-thiophene-3-carbonitrile] |
| > 10 | < 10 | COC(=O)C(CC(C)C)Nc1sc(C(=O)c2ccc(OC)cc2OC)c(N)c1C#N (centres unmarked) [Compound 1-42, 2-[4-Amino-3-cyano-5-(2,4-dimethoxy-benzoyl)-thiophen-2-ylamino]-4-methyl-pentanoic acid methyl ester] |
| > 10 | < 10 | COc1ccc(C(=O)c2sc(NC3CCOC3=O)c(C#N)c2N)c(OC)c1 (centres unmarked) [Compound 1-44, 4-Amino-5-(2,4-dimethoxy-benzoyl)-2-(2-oxo-tetrahydro-furan-3-ylamino)-thiophene-3-carbonitrile] |
| > 10 | > 10 | N#Cc1c(NCCN2CCCCC2)sc(C(=O)c2coc3ccccc23)c1N [Compound 1-45, 4-Amino-5-(benzofuran-3-carbonyl)-2-(2-piperidin-1-yl-ethylamino)-thiophene-3-carbonitrile] |
| > 10 | > 10 | N#Cc1c(NCCN2CCCCC2)sc(C(=O)c2ccccc2Cl)c1N [Compound 1-46, 4-Amino-5-(2-chloro-benzoyl)-2-(2-piperidin-1-yl-ethylamino)-thiophene-3-carbonitrile] |
| > 10 | > 10 | N#Cc1c(NCCN2CCCCC2)sc(C(=O)c2cccc(Cl)c2)c1N [Compound 1-47, 4-Amino-5-(3-chloro-benzoyl)-2-(2-piperidin-1-yl-ethylamino)-thiophene-3-carbonitrile] |
| > 10 | > 10 | N#Cc1c(NCCN2CCCCC2)sc(C(=O)c2csc3ccccc23)c1N [Compound 1-48, 4-Amino-5-(benzo[b]thiophene-3-carbonyl)-2-(2-piperidin-1-yl-ethylamino)-thiophene-3-carbonitrile] |
| < 10 | < 10 | Cc1c(C(=O)c2sc(Nc3ccccc3F)c(C#N)c2N)cnn1-c1ccccc1 [Compound 1-49, 4-Amino-2-(2-fluoro-phenylamino)-5-(5-methyl-1-phenyl-1H-pyrazole-4-carbonyl)-thiophene-3-carbonitrile] |
| > 10 | < 10 | Cc1c(C(=O)c2sc(NCCN3CCCCC3)c(C#N)c2N)cnn1-c1ccccc1 [Compound 1-51, 4-Amino-5-(5-methyl-1-phenyl-1H-pyrazole-4-carbonyl)-2-(2-piperidin-1-yl-ethylamino)-thiophene-3-carbonitrile] |
| > 10 | < 10 | COC(=O)C(CC(C)C)Nc1sc(C(=O)c2cnn(-c3ccccc3)c2C)c(N)c1C#N (centres unmarked) [Compound 1-52, 2-[4-Amino-3-cyano-5-(5-methyl-1-phenyl-1H-pyrazole-4-carbonyl)-thiophen-2-ylamino]-4-methyl-pentanoic acid methyl ester] |
| > 10 | > 10 | COC(=O)C(CCSC)Nc1sc(C(=O)c2cnn(-c3ccccc3)c2C)c(N)c1C#N (centres unmarked) [Compound 1-53, 2-[4-Amino-3-cyano-5-(5-methyl-1-phenyl-1H-pyrazole-4-carbonyl)-thiophen-2-ylamino]-4-methylsulfanyl-butyric acid methyl ester] |
| < 10 | < 10 | COc1ccc(CNc2sc(C(=O)c3cnn(-c4ccccc4)c3C)c(N)c2C#N)cc1OC [Compound 1-54, 4-Amino-2-(3,4-dimethoxy-benzylamino)-5-(5-methyl-1-phenyl-1H-pyrazole-4-carbonyl)-thiophene-3-carbonitrile] |
| > 10 | < 10 | Cc1c(C(=O)c2sc(NC3CCOC3=O)c(C#N)c2N)cnn1-c1ccccc1 (centres unmarked) [Compound 1-56, 4-Amino-5-(5-methyl-1-phenyl-1H-pyrazole-4-carbonyl)-2-(2-oxo-tetrahydro-furan-3-ylamino)-thiophene-3-carbonitrile] |
| < 10 | < 10 | CCc1ccccc1Nc1sc(C(=O)c2cnn(-c3ccccc3)c2C)c(N)c1C#N [Compound 1-58, 4-Amino-2-(2-ethyl-phenylamino)-5-(5-methyl-1-phenyl-1H-pyrazole-4-carbonyl)-thiophene-3-carbonitrile] |
| > 10 | > 10 | Cc1onc(-c2ccccc2)c1C(=O)c1sc(NCCN2CCCCC2)c(C#N)c1N [Compound 1-59, 4-Amino-5-(5-methyl-3-phenyl-isoxazole-4-carbonyl)-2-(2-piperidin-1-yl-ethylamino)-thiophene-3-carbonitrile] |
| > 10 | < 10 | COC(=O)C(CC(C)C)Nc1sc(C(=O)c2c(-c3ccccc3)noc2C)c(N)c1C#N (centres unmarked) [Compound 1-60, 2-[4-Amino-3-cyano-5-(5-methyl-3-phenyl-isoxazole-4-carbonyl)-thiophen-2-ylamino]-4-methyl-pentanoic acid methyl ester] |
| > 10 | > 10 | N#Cc1c(NCCN2CCCCC2)sc(C(=O)c2ccccn2)c1N [Compound 1-63, 4-Amino-2-(2-piperidin-1-yl-ethylamino)-5-(pyridine-2-carbonyl)-thiophene-3-carbonitrile] |
| > 10 | < 10 | COC(=O)C(CC(C)C)Nc1sc(C(=O)c2ccccn2)c(N)c1C#N (centres unmarked) [Compound 1-64, 2-[4-Amino-3-cyano-5-(pyridine-2-carbonyl)-thiophen-2-ylamino]-4-methyl-pentanoic acid methyl ester] |
